# Assay results taken from a melting point compilation (Tetko et al.; mined from patent text by program, amines drawn as free bases though some values may be those of a salt).
row,Compound,melting point
1,O=C1OC(=O)C2CCCC1C2,138 to 140 °C
2,O=C(O)c1ccc2c(c1)COC2c1ccc(F)cc1 (stereo unspecified),187 to 190 °C
3,CCCC1(CCC)CCCc2c(Nc3ccc(Cl)cc3Cl)nc(C)nc21,238 to 244 °C
4,C[Si]1(C(CN)CC(=O)O)CCCCC1 (stereo unspecified),160 to 162 °C
5,ON=C1CCCCCCC1Cc1ccccc1 (stereo unspecified),117 to 119 °C
6,COc1ccc2cccc3c2c1C(CCNC(C)=O)CC3 (stereo unspecified),98 °C
7,CC(C)CCNc1c([N+](=O)[O-])cnc2ccccc12,99 to 100 °C
8,CCCCCCCCc1ccc(C(=S)c2ccc(OCCCC)cc2O)cc1,77 to 79 °C
9,COC1C(O)C(CO)OC1n1cc(C(F)(F)F)c(=O)[nH]c1=O (stereo unspecified),192 to 194 °C
10,CSc1ncc2cc(Oc3c(F)cccc3F)c(=O)n(C)c2n1,247 to 251 °C
11,Cc1cc(Cl)cc2[nH]c(=O)c(=O)[nH]c12,> 250 °C
12,C=CC1CCC2C3CC(=O)C4=CC(=O)CCC4(C)C3CCC12C (stereo unspecified),114 to 120 °C
13,O=C1CCCC2=C1C(c1cccc([N+](=O)[O-])c1)C=C(C(F)(F)F)N2 (stereo unspecified),215 to 216 °C
14,COc1ccc(Cn2c(N)c(C#N)c3c2CCCC3)cc1,122 to 126 °C
15,C=CCc1ccc2c(c1O)CCC(=O)N2c1ccccc1,177 to 178 °C
16,CCCCCCCCCCCCCCCCCCOc1cccc(NCC(=O)OCc2ccccc2)c1,55 to 60 °C
17,COc1ccc(C2CCN(c3c(C)c(C)c4c(c3C)C(c3ccc(C(C)C)cc3)C(C)(C)O4)CC2)cc1OC (stereo unspecified),129 to 132 °C
18,COc1ccc(OC)c2c1CC[C@](O)(C(=O)O)C2,91 to 93 °C
19,CC1CC(=O)c2cc([N+](=O)[O-])ccc2O1 (stereo unspecified),144 to 145 °C
20,CCC(C#Cc1cccc(Oc2ccccn2)c1)N(O)C(N)=O (stereo unspecified),96 to 98 °C
21,CC1(C)CCCC(C)(C)N1c1nc(Cl)cc(N2CCCC2)n1,130 to 135 °C
22,CN1CCN(c2ccc([N+](=O)[O-])c(CS(=O)(=O)c3ccccc3)n2)CC1,170 to 172 °C
23,CC1(C)Cc2cc([N+](=O)[O-])cc(OCC3CO3)c2O1 (stereo unspecified),108 °C

row,Compound,melting point
1,CC12CC=C3c4ccc(O)cc4CCC3(C=C(F)F)C1CCC2O (stereo unspecified),103 to 106 °C
2,O=C1N=CNC(=O)C1Cc1ccccc1C(F)(F)F (stereo unspecified),> 290 °C
3,NCC1Cc2cccc(-c3ccc4ccccc4c3)c2O1 (stereo unspecified),135 to 140 °C
4,CCOC(=O)c1cn(Nc2ccc(F)cc2F)c2nc(Cl)c(F)cc2c1=O,210 to 212 °C
5,COC1(c2cc(F)cc(Sc3ccc(C(=O)C(F)(F)F)cc3)c2)CCOCC1,63 °C
6,Cc1cc(C#N)c(Nc2ccccc2[N+](=O)[O-])s1,99 to 102 °C
7,COc1c(O)nc(-c2ccc(OCc3ccccc3)cc2)nc1O,251 to 252 °C
8,Cc1cc(C)cc(-c2nnc(C#N)o2)c1,127 °C
9,NCCNc1cc(NCCO)c(Cl)cc1[N+](=O)[O-],160 °C
10,CCCC1=C(C#N)C(c2ccccc2[N+](=O)[O-])c2c[nH]nc2N1 (stereo unspecified),216 °C
11,O=c1[nH]c2ccccc2c(=O)n1S(=O)(=O)c1ccc(Cl)cc1,214 to 215 °C
12,CCn1c(=O)c2c(-c3nc(C4CC4)no3)ncn2c2cccnc21,262 to 263 °C
13,O=S(=O)(c1cc(Br)c(-c2ccc(Cl)cc2)[nH]1)C(F)(F)F,155 to 159 °C
14,C=C(C)C(=O)OCCCCOC(=O)/C=C/c1ccc(OC(=O)OCC)cc1,54 to 56 °C
15,CCCCNc1cc(C(=O)O)cc(S(C)=O)c1Cl (stereo unspecified),158 °C
16,COc1cnc(Cl)c(C(N)=O)c1,129 to 132 °C
17,CCn1c(=O)c2[nH]c(/C=C/c3cc(F)cc(F)c3)nc2n(CC)c1=O,> 280 °C
18,COc1cc([N+](=O)[O-])c(NC(C)=O)cc1OC(F)F,116 to 117 °C
19,Cc1cnc2sc(Sc3ccccc3)nn2c1=O,141 to 143 °C
20,OC1CSC(Oc2cncc(-c3cccnc3)c2)C(O)C1O (stereo unspecified),203 °C
21,O=C(Nc1ccnn1-c1c(F)c(F)c(C(F)(F)F)c(F)c1F)C(Cl)Cl,112 to 114 °C
22,CCCN(CCC)CCc1ccc(O)c2nc[nH]c12,135 to 139 °C
23,Cc1sc2c(c1C)C(c1ccc(Cl)cc1)=NC(CC(=O)NCCN)c1nnc(C)n1-2 (stereo unspecified),142 to 146 °C

row,Compound,melting point
1,COc1cc(N2CCN([C@H]3CC[C@H](c4cn(C)c5ccc(C#N)cc54)CC3)CC2)c2ncccc2c1C,212 to 213 °C
2,O=C(C=Cc1cc(O)c(O)c(C(F)(F)F)c1)c1ccccc1,196 to 201 °C
3,CCCCCc1cc2c(nc(O)n2Cc2cccnc2)c(N)n1,243 to 245 °C
4,CCCCCC(=O)c1c(C)nc2cc(OC)c(OC)cc2c1-c1ccc(OC)c(OC)c1,123 to 125 °C
5,CN1CCC(c2c[nH]c3ccc([N+](=O)[O-])cc23)C(F)C1 (stereo unspecified),105 to 107 °C
6,Clc1ccc2[nH]cc(C3=CCNCC3)c2c1,177 °C
7,CC(C)(C)OC(=O)NCCCCC(=O)NCCC(=O)O,70 °C
8,COC(=O)c1cc2ccc(C(=O)OC(C)(C)C)cc2[nH]1,189 to 190 °C
9,Cc1cc(O)ccc1Oc1ccccc1,96 to 99 °C
10,O=C1c2ccccc2C(=O)N1CCc1cn2ccccc2n1,181 to 182 °C
11,Cc1cc(Br)c2nc(OCC(F)(F)F)ccc2c1,61 to 62 °C
12,COc1ccc(CN2CC(=O)Nc3cccc(Cl)c3C2=O)c(OC)c1,230 to 231 °C
13,O=C(O)CCCCCOC(c1ccccc1)(c1ccccc1)c1ccccc1,114 to 116 °C
14,Oc1c2c(nc3c(-c4cc(-c5ccccc5)cs4)cnn13)CCCC2,271 to 272 °C
15,"NCC(=O)N1CCC(C2c3ncc(Br)cc3CCc3cc(Cl)cc(Cl)c32)CC1 (single isomer, unassigned; (+))",81 to 122 °C
16,N#Cc1nn(-c2c(Cl)cc(C(F)(F)F)cc2Cl)c(Cl)c1C1CC1(Br)Br (stereo unspecified),104 °C
17,NS(=O)(=O)c1ccc(-n2nc(C(F)(F)F)cc2-c2nc3ccc(F)cc3s2)cc1,260 to 261 °C
18,CN1CC(c2ccc(OCc3ccc(F)cc3)cn2)=C(O)C1=O,210 to 211 °C
19,O=c1c2ccccc2sc2ccc(SCCO)cc12,94 °C
20,CC1(C)C(=O)NC(=O)c2c1ccc1nc(Nc3c(Cl)cccc3Cl)sc21,> 300 °C
21,O=C1Nc2ccc(Cl)cc2C(C#Cc2ccccc2)(C(F)(F)Cl)O1 (racemic),154 to 155 °C
22,O=C(O)C(=O)c1ccc(Br)s1,119 to 120 °C
23,COC(=O)C1(C)c2ccccc2-c2ccccc21,108 to 109 °C

# The remaining lines, values ahead:
row,melting point,Compound
1,172 to 173 °C,CC(=O)Nc1cccc(C=C2C(=O)c3ccccc3OC2c2ccccc2)c1 (stereo unspecified)
2,146 to 147 °C,COc1cccc(-c2cc(O)c(SCc3ccccc3)c(=O)o2)c1
3,164 °C,CCc1cn2ccccc2c1S(=O)(=O)c1ccc(OS(=O)(=O)c2ccc(C)cc2)c(C)c1
4,191 to 192 °C,COc1cc(COc2cc(/C=C/C(=O)O)n(-c3ccccc3)n2)ccc1OCc1nc(-c2ccco2)oc1C
5,192 to 193 °C,COc1cccc(CNc2n[nH]c3ncnc(Nc4cccc(Cl)c4)c23)c1
6,149 to 150 °C,CC(=O)CC(=O)N1C(=N)CCN=C(c2ccccc2)c2cc(Cl)ccc21
7,58 °C,COc1cc(CCN2CCN(c3nsc4ccccc34)CC2)c(NC(=O)C=C(C)C)cc1OC
8,256 to 258 °C,CCOCCOc1ccc(COc2ccc3c(c2)C=C(C(=O)O)CCS3(=O)=O)cc1
9,165 to 167 °C,CCNC(=O)c1cc([N+](=O)[O-])ccc1Oc1cncc(Cl)c1
10,161 to 162 °C,CCOC(=O)/C=C/c1ccc(C=Cc2nc(-c3ccccc3)oc2C)cc1
11,237 to 238 °C,COC(=O)c1ccc(-c2nnc(-c3ccc(C(F)(F)F)cc3)o2)c(N)c1
12,171 to 172 °C,Cn1c(-c2ccccc2)c(C2=CCC(C(=O)O)CC2)c2ccccc21 (stereo unspecified)
13,185 to 187 °C,CC1(C)CCCc2ccc(CC#Cc3ccc(C(=O)O)c(O)c3)cc21
14,152 to 153 °C,CCOC(=O)c1ccc(Oc2ccccc2C(=O)O)cc1
15,98 to 104 °C,C=C(C)C(=O)OCCCCCCOc1ccc(C(=O)Oc2ccc3ccc(=O)oc3c2)cc1
16,360 °C,O=C(O)c1cc(C(=O)O)cc(P(=O)(O)O)c1

row,melting point,Compound
1,198 to 201 °C,CC(=O)Nc1cccc(-c2ccc3nnn(Cc4ccc5ncccc5c4)c3n2)c1
2,241 to 242 °C,CC(=O)Nc1ccc(SSc2ccc(NC(C)=O)cc2C(=O)NC(CC(C)C)C(=O)O)c(C(=O)NC(CC(C)C)C(=O)O)c1 (stereo unspecified)
3,161 °C,CCc1cn2ccccc2c1S(=O)(=O)c1cc(C)c(OS(=O)(=O)c2ccc(C)cc2)c(C)c1
4,176 to 179 °C,CC(C)(C)CC(C)(C)c1cc(N=Nc2ccc(-c3ccccc3)cc2[N+](=O)[O-])c(O)c(C(C)(C)c2ccccc2)c1
5,143 to 144 °C,CC(C)(C)OC(=O)Nc1cccc(-c2noc(CCC(=O)O)n2)c1
6,134 to 135 °C,O=C(O)Cc1cccc(OCCCCc2cc(-c3ccc(C(F)(F)F)cc3)no2)c1
7,176 °C,CS(=O)(=O)c1ccc(C(=O)c2ccc(Cl)cc2)cc1
8,126 to 133 °C,CC1(C)CCC(C)(C)c2cc(N(Cc3ccc(Cl)cc3)C(=O)Nc3ccc(C(=O)O)cc3)ccc21
9,208 to 210 °C,CC(=O)Oc1ccc(-c2cc3ccc(OC(C)=O)cc3s2)cc1
10,112 to 114 °C,CCOC(Cc1ccc(OCCCc2nc(-c3ccc(C(F)(F)F)cc3)oc2C)c2ccsc12)C(=O)O (stereo unspecified)
11,116 to 118 °C,CCCc1c(OCCCCCOc2ccccc2CCCC(=O)O)ccc2c1OCCC2=O
12,102 to 104 °C,O=C1NC(=O)C(Cc2ccc(OCCON=Cc3ccc(-c4ccccc4)nc3)cc2)S1 (stereo unspecified)
13,97 to 98 °C,CC1(C)Oc2ccc(CNc3ccc(Cl)cc3)cc2OC1=O
14,132 to 133 °C,CC(=O)c1cc(F)ccc1Oc1nc2ccc([N+](=O)[O-])cc2cc1Cc1ccccc1
15,96 to 98 °C,Cc1ccc(SCC(CCC(=O)O)C(=O)O)cc1C (stereo unspecified)
16,217 to 218 °C,NS(=O)(=O)c1ccc(CCNC(=O)c2nc(-c3ccccc3)no2)cc1
